Results published in patent US20230355690A1, “METHOD OF TREATMENT WITH LACTIC ACID BACTERIA” (UNIVERSITY-INDUSTRY COOPERATION GROUP OF KYUNG HEE …, priority 2017, published 2023).

How the values were obtained:
Th2 cell = assay: Spleen T cell differentiation into Th2 cells, FACS; assay type: cell-based; conditions: C56BL/6J mouse spleen CD4 T cells; lactic acid bacteria 1×10^5 CFU per well, four days
Procedure: (§1) Particularly, a spleen was isolated from a C56BL/6J mouse, then crushed, then suspended in an RPMI 1640 medium containing 10% FCS, and then CD4 T cells were isolated by using a CD4 T cell isolation kit (MiltenyiBiotec, Bergisch Gladbach, Germany). The isolated CD4 T cells were divided into a 12-well plate at 5×10^5 cells per well. After that, the cells were cultured in each well with an addition of anti-CD3, anti-CD28, IL-2 and IL-12 to induce a differentiation of T cells into Th1 cells; with the addition of anti-CD3, anti-CD28, IL-2 and IL-4 to induce the differentiation of T cells into Th2 cells; with the addition of anti-CD3, anti-CD28, IL-6 and TGF-β to induce the differentiation of T cells into Th17 cells; and with the addition of anti-CD3 and anti-CD28 to induce the differentiation of T cells into Treg cells, and a test material, i.e., lactic acid bacteria were inserted thereinto at 1×10^5 CFU per well, and then cultured for four days. Also, in order to compare the effects of lactic acid bacteria, various prebiotics were used as the test material.
(§2) After that, a differentiation potency of the T cells isolated from the spleen into Th1, Th2, Th17 and Treg cells was measured. Particularly, the cells of culture fluid were stained with anti-FOXp3 or anti-IL-17A antibodies, after which a distribution of Th1, Th2, Th17 and Treg cells was analyzed by means of a FACS (fluorescence-activated cell sorting) device (C6 Flow Cytometer® System, San Jose, CA, USA), wherein results thereof are shown in following tables 11 to 13. In the tables 11 to 13 below, the lactic acid bacteria are shown without species names thereof, and are given strain names assigned by the present inventors.

Th1 cell = assay: Spleen T cell differentiation into Th1 cells, FACS; assay type: cell-based; conditions: C56BL/6J mouse spleen CD4 T cells; lactic acid bacteria 1×10^5 CFU per well, four days
Procedure: as §1, §2

NF-κB (p-p65/p65) [1] = assay: Inflammation reaction inhibiting effect on dendritic cells (LPS): NF-κB activation, immunoblotting; assay type: cell-based; conditions: C57BL/6 mouse bone marrow dendritic cells + LPS, 90 minutes; lactic acid bacteria 1×10^4 CFU/ml
Excerpt: (§3) Immune cells were isolated from the bone marrow of a C57BL/6 mouse (male, 20-23 g) by using RPMI 1640 containing 10% FBS, 1% antibiotics, 1% glutamax and 0.1% mercaptoethanol, then treated with RBC lysis buffer, and then washed. Said cells were divided into each well of a 24-well plate, then treated with GM-CSF and IL-4 at a ratio of 1:1000, and then cultured. On a 5th day of culture, the cells were replaced with a new medium, then collected on an 8th day thereof, and then used as dendritic cells. After that, the dendritic cells were plated into a 24-well plate at 0.5×10^6 cells per well, then treated with a test material, i.e., lactic acid bacteria, as well as an inflammation reaction inducer, i.e., lipopolysaccharide (LPS) for 90 minutes or 24 hours, and then supernatant and cells were obtained therefrom. At that time, a treatment concentration of lactic acid bacteria was 1×10^4 CFU/ml. Also, in order to compare the effects of lactic acid bacteria, various prebiotics were used as the test material.
(§4) An expression level of IL-10 and IL-12 was measured from said obtained supernatant by means of an ELISA kit. Also, the expression level of p65 (NF-κB), p-p65 (phosphor-NF-κB) and β-actin was measured from the cells, which have been obtained after being treated with the test material for 90 minutes, by means of the same immunoblotting method as in Example 2.(1) above. The results of testing the inflammation reaction inhibiting effect of lactic acid bacteria on dendritic cells are shown in following tables 8 to 10.

NF-κB (p-p65/p65) [2] = assay: Inflammation reaction inhibiting effect on macrophage (LPS): NF-κB activation, immunoblotting; assay type: cell-based; conditions: C57BL/6J mouse peritoneal macrophage + LPS; lactic acid bacteria 1×10^4 CFU/ml
Procedure: (§5) A six-week old C57BL/6J male mouse (20-23 g) was purchased from Raonbio Co., Ltd. 2 ml of sterilized 4% thioglycolate was intraperitoneally administered into the mouse, which was then anesthetized in 96 hours later. After that, 8 ml of RPMI 1640 medium was intraperitoneally administered to the mouse. In 5 to 10 minutes later, the RPMI medium (including macrophage) was intraperitoneally extracted again from the mouse, then centrifuged on condition of 1000 rpm for 10 minutes, and then washed twice again with the RPMI 1640 medium. The macrophage was plated into a 24-well plate at 0.5×10^6 cells per well, then cultured for 24 hours, and then unattached cells were removed therefrom. The macrophage culture fluid was treated with a test material, i.e., lactic acid bacteria as well as an inflammation reaction inducer, i.e., lipopolysaccharide (LPS) for 90 minutes or 24 hours, and then supernatant and cells were obtained therefrom. At that time, a treatment concentration of lactic acid bacteria was 1×10^4 CFU/ml. Also, in order to compare the effects of lactic acid bacteria, various prebiotics were used as the test material.
An expression level of TNF-α from said obtained supernatant was measured by means of an ELISA kit. Also, the expression level of p65 (NF-κB), p-p65 (phosphor-NF-κB) and β-actin was measured from said obtained cells by means of an immunoblotting method. Particularly, 50 μg of the supernatant was taken and subjected to electrophoresis in SDS 10% (w/v) polyacrylamide gel for one and half an hour. The electrophoresed sample was transferred onto a nitrocellulose paper on condition of 100 V and 400 mA for one hour and 10 minutes. The nitrocellulose paper, onto which the sample was transferred, was subjected to blocking by means of 5% skim milk for 30 minutes, then washed with PBS-Tween three times for five minutes each, and then subjected to reaction overnight with an addition of primary antibodies (Santa Cruz Biotechnology, the U.S.) at a ratio of 1:100. After that, such paper was washed three times for ten minutes each, and subjected to reaction with the addition of secondary antibodies (Santa Cruz Biotechnology, the U.S.) at a ratio of 1:1000 for one hour and 20 minutes. Then, such paper was washed three times for 15 minutes each, then subjected to fluorescent color formation, then developed, and then the intensity of chromophore band was measured.

IL-10 = assay: Inflammation reaction inhibiting effect on dendritic cells (LPS): IL-10 expression, ELISA; assay type: cell-based; conditions: C57BL/6 mouse bone marrow dendritic cells + LPS; lactic acid bacteria 1×10^4 CFU/ml
Excerpt: as §3, §4

Th17 cell = assay: Spleen T cell differentiation into Th17 cells, FACS; assay type: cell-based; conditions: C56BL/6J mouse spleen CD4 T cells; lactic acid bacteria 1×10^5 CFU per well, four days
Procedure: as §1, §2

Treg cell = assay: Spleen T cell differentiation into Treg cells, FACS; assay type: cell-based; conditions: C56BL/6J mouse spleen CD4 T cells; lactic acid bacteria 1×10^5 CFU per well, four days
Procedure: as §1, §2

IL-12 = assay: Inflammation reaction inhibiting effect on dendritic cells (LPS): IL-12 expression, ELISA; assay type: cell-based; conditions: C57BL/6 mouse bone marrow dendritic cells + LPS; lactic acid bacteria 1×10^4 CFU/ml
Excerpt: as §3, §4

[3] = system: animal model with induced allergic rhinitis and asthma; assay: Example 6: OVA-induced allergic rhinitis and asthma mice, indicators in serum and BALF (ELISA, FACS); assay type: in vivo, mouse; conditions: oral once daily for five days, Dx 1 mg/kg intraperitoneal
Procedure: Seven week-old BALB/C female mice (21-23 g) were acclimated for one week on condition of a controlled environment with humidity of 50%, temperature of 25° C., and light/dark cycle of 12:12 hours. After that, 20 μg of allergy-inducing ovalbumin (OVA) and 2 mg of aluminum hydroxide (Alum) were suspended into 0.2 ml of phosphate buffered saline (PBS: pH 7.4) and intraperitoneally injected into each of the mice on initial and 14th days of an experiment. Then, 100 μg of the OVA was dissolved in 10 μl of distilled water, and intranasally smeared onto each of the mice to induce allergic rhinitis and asthma therefrom on 26th, 27th and 28th days of the experiment. Meanwhile, a test drug, i.e., lactic acid bacteria were orally administered into each of the mice once daily for a total of five days from 26th to 30th days of the experiment. Also, dexamethasone, which was used as a positive control drug instead of lactic acid bacteria, was intraperitoneally administered at a dose of 1 mg/kg b.w. Further, in case of the mice of a normal group, allergic rhinitis and asthma were not induced therefrom, but only the phosphate buffered saline (PBS: pH 7.4) was orally administered thereinto instead of the OVA and the test drug. Furthermore, in case of the mice of a control group, allergic rhinitis and asthma were induced therefrom, and only the phosphate buffered saline (PBS: pH 7.4) was orally administered thereinto as the test drug. After an end of the experiment, the mice were anesthetized, after which blood, lung tissues and the BALF were collected therefrom. Serum was isolated from the blood collected by means of centrifugation, and used as an assay sample. Indicators related to anti-rhinitis and anti-asthma effects were analyzed from serum, the BALF and lung tissues by using various analysis methods. Each analysis method and indicators analyzed thereby are as follows. • Enzyme-linked immunosorbent assay (ELISA): IL-10, IL-5, IL-6, IL-4, IgE, etc. • FACS (fluorescence-activated cell sorting): Distribution of T cells (Th1: CD4^+/IFN-γ^+; Th2: CD4^+/IL-4^+; Treg: CD4^+/FOXp3^+; Th17: CD4^+/IL-17^+), Distribution of eosinophils (CD11b^+, Siglec-F^+)

TNF-α = assay: Inflammation reaction inhibiting effect on macrophage (LPS): TNF-α expression, ELISA; assay type: cell-based; conditions: C57BL/6J mouse peritoneal macrophage + LPS; lactic acid bacteria 1×10^4 CFU/ml
Procedure: as §5, with “At that time, a treatment concentration of lactic acid bacteria was 1×10^4 CFU/ml. Also, in order to compare the effects of lactic acid bacteria, various prebiotics were used as the test material.” left out
An expression level of TNF-α from said obtained supernatant was measured by means of an ELISA kit. Also, the expression level of p65 (NF-κB), p-p65 (phosphor-NF-κB) and β-actin was measured from said obtained cells by means of an immunoblotting method. […] Then, such paper was washed three times for 15 minutes each, then subjected to fluorescent color formation, then developed, and then the intensity of chromophore band was measured.

Compound | Differentiation inhibition rate Th2 cell (Th2 cell) | Differentiation inhibition rate Th1 cell (Th1 cell) | NF-κB activation inhibition rate (p-p65/p65) (NF-κB (p-p65/p65) [1]) | NF-κB activation inhibition rate (p-p65/p65) (NF-κB (p-p65/p65) [2]) | IL-10 expression increasing rate (IL-10) | Differentiation inhibition rate Th17 cell (Th17 cell) | Differentiation increasing rate Treg cell (Treg cell) | IL-12 expression inhibition rate (IL-12) | Increasing rate Treg cell ([3]; BALF, FACS) | Inhibition rate Eosinophils ([3]; BALF, FACS) | Inhibition rate Th2 cell ([3]; BALF, FACS) | Increasing rate IL-10 ([3]; BALF) | Inhibition rate IL-4 ([3]; BALF) | Inhibition rate IL-5 ([3]; BALF) | Inhibition rate IL-4 ([3]; serum) | Inhibition rate IL-5 ([3]; serum) | Inhibition rate IgE ([3]; serum) | TNF-α expression inhibition rate (TNF-α)
OC[C@H]1O[C@@H](O[C@@H]2[C@@H](CO)OC(O)(CO)[C@H]2O)[C@H](O)[C@@H](O)[C@H]1O (mixture of isomers) [Lactulose, lactulose] | ++ (30-60%) | + (10-30%) | + (10-30%) | + (10-30%) | − (<10%) | − (<10%) | ++ (50-100%) | + (10-30%) | – | – | – | – | – | – | – | – | – | –
C[C@@H]1C[C@H]2[C@@H]3CCC4=CC(=O)C=C[C@]4(C)[C@@]3(F)[C@@H](O)C[C@]2(C)[C@@]1(O)C(=O)CO [Dx, dexamethasone] | – | – | – | – | – | – | – | – | − (<10%) | +++ (>60%) | +++ (>60%) | ++ (50-100%) | +++ (>60%) | +++ (>60%) | +++ (>60%) | ++ (30-60%) | +++ (>60%) | –
OC[C@H]1O[C@H](O[C@H]2O[C@H](CO)[C@@H](O)[C@H](O)[C@H]2O)[C@H](O)[C@@H](O)[C@@H]1O [Trehalose, trehalose] | + (10-30%) | + (10-30%) | + (10-30%) | + (10-30%) | + (10-50%) | + (10-30%) | + (10-50%) | + (10-30%) | – | – | – | – | – | – | – | – | – | –
cyclodextrin | + (10-30%) | ++ (30-60%) | + (10-30%) | + (10-30%) | − (<10%) | ++ (30-60%) | + (10-50%) | + (10-30%) | – | – | – | – | – | – | – | – | – | –
gelatin | ++ (30-60%) | + (10-30%) | + (10-30%) | + (10-30%) | + (10-50%) | + (10-30%) | + (10-50%) | + (10-30%) | – | – | – | – | – | – | – | – | – | + (10-30%)
